Results published in US11382908B2, “Compositions and methods for treating inflammatory bowel disease” (The Broad Institute, Inc., priority 2017, dated 2022).

Legend:
[1] = system: phosphorylation of IKK in primary bone marrow-derived dendritic cells; experiment: Phospho-IKK FACS in bone marrow-derived dendritic cells; assay type: cell-based, C57B/6 mice; conditions: 200 μM compound; stimuli scleroglucan (Dectin-1) or LPS (TLR4 control)
Description: (§1) THP-1 and HEK293T cells were from ATCC and cultured according to ATCC instructions. Cell cultures were regularly checked for mycoplasma contamination using a mycoplasma PCR test. BMDCs were isolated from femur and tibia of C57B/6 mice by harvesting bone marrows followed by hypotonic red blood cell lysis. Obtained bone marrow cells were cultured in DMEM (10% FBS, 1% penicillin/streptomycin, 1% glutamin) with 25 ng/ml GM-CSF.
For phospho-IKK FACS analysis, the BMDCs were plated on day 7 in U bottom 96-well plates at 150,000 cells/well in DMEM, 10% FBS, 1% penicillin/streptomycin, glutamine and GM-CSF the day before the assay. Growth media was replaced with reduced serum media (2% FBS), at this time compound 9 was added to the appropriate wells (at 200 μM) and cells were incubated for 2 hours. Cells were stimulated with 50 μg/ml scleroglucan (Invivogen) or 100 ng/ml LPS (Sigma) for the indicated times at 37° C. At the end of the incubation, media was aspirated and cells were fixed in 4% PFA for 10 min at 37° C.; then resuspended in blocking buffer (3% BSA in permeabilization buffer, eBioscience). […] FACS analysis was run on Cytoflex instrument (Beckman Coulter) and analyzed using FlowJo software by sequentially gating on live/single cells/MHCII high cell population.

[2] = Truhit alphaLISA assay for non-specific alphaLISA inhibitors; conditions: percent AlphaLISA signal, 100% = DMSO control
From the text: Data are expressed as mean of percent AlphaLISA signal (100%=mean AlphaLISA signal with DMSO control)+/−s.d. […] The alphaLISA findings were further corroborated by TRIM62-mediated ubiquitinylation assay coupled with Western blot detection (FIG. 2E).

[3] = target: T1, ubiquitinylation of CARD9 by TRIM62 (Homo sapiens, UniProt Q9H257); experiment: TRIM62-mediated ubiquitinylation assay with Western blot detection; assay type: biochemical
T1 construct: Full-length Flag-StrepII-CARD9 for AlphaLISA, DSF and NMR assays was expressed as previously described; StrepII (N); made in house; UBE1 and UBE2D2 purchased from LifeSensors, no catalogue numbers
T1 sequence (Q9H257 1-536): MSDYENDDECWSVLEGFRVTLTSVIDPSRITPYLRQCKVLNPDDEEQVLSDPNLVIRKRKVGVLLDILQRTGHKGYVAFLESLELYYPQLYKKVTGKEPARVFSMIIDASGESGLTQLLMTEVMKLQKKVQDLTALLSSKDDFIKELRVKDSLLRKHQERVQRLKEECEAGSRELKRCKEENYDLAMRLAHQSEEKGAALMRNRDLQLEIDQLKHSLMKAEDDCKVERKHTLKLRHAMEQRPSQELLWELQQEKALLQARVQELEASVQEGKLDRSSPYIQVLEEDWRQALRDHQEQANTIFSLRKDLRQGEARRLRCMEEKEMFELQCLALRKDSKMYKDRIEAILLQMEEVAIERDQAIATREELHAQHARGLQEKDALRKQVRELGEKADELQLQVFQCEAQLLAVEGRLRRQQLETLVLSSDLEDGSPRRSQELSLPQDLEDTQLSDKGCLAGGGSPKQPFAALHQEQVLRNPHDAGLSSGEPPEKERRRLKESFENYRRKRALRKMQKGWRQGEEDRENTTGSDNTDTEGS
Description: For western blot detection, ubiquitinylation reactions contained 250 nM Flag-Strep-CARD9, 5 nM TRIM62, 5 μM of HA-tagged ubiquitin (Boston Biochem), 25 nM UBE1 (LifeSensors), 300 nM UBE2D2 (LifeSensors), 50 mM Tris pH=7.5, 5 mM MgCl2, 2.5 mM ATP, 1 mM DTT in a final volume of 20 μl. Reactions were quenched by the addition of the LDS sample buffer with 50 mM DTT. HA antibody F-7 (Santa Cruz) was used for the detection of polyubiquitin chains, and Flag M2 antibody from Sigma was used to detect Flag-StrepII-CARD9 as a loading control.

[4] = target: T1, ubiquitinylation of CARD9 by TRIM62; experiment: AlphaLISA ubiquitinylation assay; assay type: biochemical; conditions: reconstituted E1-E2-E3 TRIM62 complex
Description: FlagStrep-CARD9 and TRIM62 were expressed and purified as previously described (Cao et al.). Assay-ready plates containing 80 nl of 10 mM compound in DMSO were used. Ubiquitinylation reactions contained 12.5 nM Flag-Strep-CARD9, 1.25 nM TRIM62, 500 nM ubiquitin, 10 nM UBE1 (LifeSensors), 200 nM UBE2D2 (LifeSensors), 50 mM Tris pH=7.5, 5 mM MgCl2, 2.5 mM ATP, 1 mM DTT, 0.005% Tween-20 in a final volume of 10 μl. To assemble reactions, all reaction components except ubiquitin and Trim62 were combined and dispensed at a 2× concentration in a volume of 5 μl using a Multi-Drop Combi Reagent Dispenser. Reactions were initiated by added ubiquitin and TRIM62 at a 2× concentration in a volume of 5 μL in the same manner. The reactions were incubated at ambient temperature for 90 min then stopped by the addition of 10 μl of 2× quench/detect solution using a 16-ViaFlow dispenser. The 2× quench/detect solution contained 100 mM HEPES pH=7.5, 300 mM NaCl, 0.01% Tween 20, 30 mM ETDA, 40 μg/ml Streptavidin-Donor beads, 10 μg/ml α-Flag-Acceptor beads (both from PerkinElmer) and 100 nM biotin-TUBE1 (LifeSensors). Plates were incubated at RT for an additional 1 h then read on a PerkinElmer Envision.

[5] = system: NF-κB activation in THP-1 cells; experiment: NF-κB luciferase reporter assay in THP-1 cells reconstituted with Dectin-1; assay type: cell-based; conditions: for WGP Dectin-1-mediated signaling to NF-κB, luciferase activity: WGP 50 μg/mL, 200 μM compound, 4-h time point
Description: as §1
CARD9 KO THP-1 cells were generated by a CRIPSR-based approach as previously described (Cao et al.). For the NF-κB luciferase assay, CARD9 KO or WT THP-1 cells lines were transduced with Dectin-1 (NM 022570) and a lentivirus-based NF-κB luciferase reporter, containing NF-κB responsive element upstream of minimal promoter and Luc2P54. CARD9 KO cells overexpressing Dectin-1 and the NF-κB luciferase reporter were rescued with indicated CARD9 constructs. For compound treatment, Compound 9 was pre-incubated with Dectin-1, NF-κB reporter expressing THP-1 cells for 2 hours, followed by stimulation with scleroglucan (50 μg/ml), whole glucan particles (WGP dispersible, Invivogen, 50 μg/ml), or LPS (100 ng/ml). Reporter luciferase activity was measured using Steadylite Plus reagent (PerkinElmer).

[6] = target: T2, CARD9-TRIM62 protein-protein interaction (Homo sapiens, UniProt Q9H257); experiment: Luminex bead-based ELISA CARD9-TRIM62 protein-protein interaction assay; assay type: binding
T2 construct: expressed in transfected cells; host or cells: HEK293F (Life Technologies, R790-07), separate transient transfections, cleared lysates
T2 sequence (Q9H257 1-536): T1 sequence (Q9H257 1-536)
Description: Flag-StrepII-CARD9 and TRIM62 were purified as described (Cao et al). TRIM62ΔRING and B30.2/SPRY were expressed in Sf9 cells in pFastBac as His8 fusion. For Luminex assay, HEK293F cells were transfected with 3XMyc-TRIM62 in pCMV and separately with Flag-CARD9 in pcDNA4/TO. Anti-Myc tag antibody (9E10) was conjugated to the beads and used for TRIM62 affinity capture from cleared lysates. Following the incubation with compounds, Flag-CARD9 lysate was added; after a series of washes and secondary PE-conjugated antibody incubation, readout was performed on MagPlex instruments.
HEK293F (Life Technologies, R790-07) cells were grown in Freestyle media (Cat. #12338) according to manufacturer's instructions. Cells were transiently transfected with 3XMyc-TRIM62 in pCMV and separately with Flag-CARD9 in pcDNA4/TO. Anti-Myc tag antibody (9E10, Sigma) was conjugated to the Luminex beads (10 spectral range beads in 10 separate reactions) using Pierce reagents/Luminex coupling kit. Flag-CARD9 and Myc-TRIM62 transfected cells were separately lysed in the lysis buffer (50 mM Tris pH 7.4, 150 mM NaCl, 0.5% NP40, protease inhibitors (Complete, Roche, 11873580001), phosphatase inhibitors (PhosStop, Roche, 4906845001)) and cleared by centrifugation at 10,000 g. Cleared TRIM62 lysates were added to the beads for Myc-mediated capture, incubated at room temperature for 1 hr, then washed lx and reconstituted in 1% BSA in PBS.
Screening compounds were pre-dispensed into assay-ready plates (twintecc, Eppendorf; 50 nl of 10 mM compound stock in DMSO per well). Cleared CARD9 lysate (20 μl per well) was added to the assay-ready plate and pre-incubated with the screening compounds for 30 min before addition of TRIM62-bound beads (300 beads per well, in 5 μl of 1% BSA in PBS). Plates were mixed on Bioshake IQ at 2400 rpm for 2 min and incubated for 40 min at room temperature. Plates were then washed on Biomek NX^P instrument with magnetic plate holders 1× with 1% BSA in PBS. Each 10 plates with non-identical spectral regions of beads were combined into one deep-well plate, and incubated with Flag-PE antibody conjugate (Abcam, ab72469) at the final dilution 1:400 for 1 hr. After 1× wash with 1% BSA in PBS, the readout was performed on Luminex MagPlex instruments with standard operating protocol. Bead quantity per well was employed as quality control measure, wells with bead count less than 20 were rejected from the analysis.

inhibition of CARD9-TRIM62 protein-protein interaction (Luminex) [6]	Compound	phosphorylation of IKK (CARD9 signaling) [1]	non-specific alphaLISA inhibition (Truhit) [2]	inhibition of in vitro CARD9 ubiquitinylation (Western blot) [3]	inhibition of polyubiquitinylation of CARD9 by TRIM62 (AlphaLISA) [4]	WGP Dectin-1-mediated signaling to NF-κB, luciferase activity [5]	NF-κB activation, luciferase reporter ([5]; scleroglucan or LPS stimuli, 2 hr and 4 hr)	activation of Dectin-1-mediated signaling, NF-κB-driven luciferase reporter ([5]; 50 μg/mL WGP or scleroglucan)
dose-dependent inhibitors	Cc1ccc(C(=O)Nc2cnc(N3CCC(C(N)=O)(N4CCCCC4)CC3)c(C(=O)O)c2)cc1 [compound 9]	attenuates CARD9 signaling in stimulus-dependent manner	Nonspecific inhibition was not observed	inhibition of in vitro CARD9 ubiquitinylation reaction	inhibit the functional ubiquitinylation of CARD9 by TRIM62	inhibited	attenuates CARD9 signaling in stimulus-dependent manner	–
potent inhibitor	NC(=O)C1(N2CCCCC2)CCN(c2ccc(NC(=O)c3ccccc3F)cc2C(=O)O)CC1 [compound 11]	–	–	–	potent inhibitor	–	–	–
dose-dependent inhibitors	NC(=O)C1(N2CCCCC2)CCN(c2ncc(NC(=O)c3ccc(Cl)cc3)cc2C(=O)O)CC1 [compound 27]	–	Nonspecific inhibition was not observed	inhibition of in vitro CARD9 ubiquitinylation reaction	inhibit the functional ubiquitinylation of CARD9 by TRIM62	–	–	–

Further lines, the compound ahead of its results:

Compound	inhibition of CARD9-TRIM62 protein-protein interaction (Luminex) [6]	phosphorylation of IKK (CARD9 signaling) [1]	non-specific alphaLISA inhibition (Truhit) [2]	inhibition of in vitro CARD9 ubiquitinylation (Western blot) [3]	inhibition of polyubiquitinylation of CARD9 by TRIM62 (AlphaLISA) [4]	WGP Dectin-1-mediated signaling to NF-κB, luciferase activity [5]	NF-κB activation, luciferase reporter ([5]; scleroglucan or LPS stimuli, 2 hr and 4 hr)	activation of Dectin-1-mediated signaling, NF-κB-driven luciferase reporter ([5]; 50 μg/mL WGP or scleroglucan)
scleroglucan [reference compound]	–	–	–	–	–	–	–	more potent ligand than WGP
NC(=O)C1(N2CCCCC2)CCN(c2ncc(NC(=O)c3cccc(Cl)c3)cc2C(=O)O)CC1 [compound 7]	dose-dependent inhibitors	–	Nonspecific inhibition was not observed	inhibition of in vitro CARD9 ubiquitinylation reaction	inhibit the functional ubiquitinylation of CARD9 by TRIM62	–	–	–
NC(=O)C1(N2CCCCC2)CCN(c2ncc(NC(=O)c3ccccc3)cc2C(=O)O)CC1 [compound 6]	dose-dependent inhibitors	–	Nonspecific inhibition was not observed	inhibition of in vitro CARD9 ubiquitinylation reaction	inhibit the functional ubiquitinylation of CARD9 by TRIM62	inhibited	–	–
